From patent US20040096520A1, “Manganese compositions for reducing/preventing skin wrinkles and fine lines” (SOCIETE L'OREAL S.A., priority 2000, published 2004)

System: phrenic nerve/isolated diaphragm preparation
Details: 10^−3 M; contractions induced by indirect stimulation via the phrenic nerve (0.1 to 7 volts, 0.3 ms, 0.1 Hz); cumulative concentrations
Method: Activity of manganese gluconate and of manganese chloride in a model of nerve/muscle junction (motor plate) obtained in a phrenic nerve/isolated diaphragm preparation: investigation of a myorelaxant effect:
The phrenic nerve and the diaphragm were carefully isolated and placed in a 50 ml tank filled with survival fluid (Krebs Henseleit liquid) maintained at a temperature of 37° C. and oxygenated with a mixture of 95% oxygen and 5% CO2.
The variations in the tension of the diaphragm were then recorded with an initial preloading of several grams.
After a relaxation period of 30 min., the diaphragm was stimulated indirectly via the phrenic nerve.
On each preparation, the effect of the test products was evaluated, in a first stage, on the contractions induced by indirect stimulation via stimulation of the phrenic nerve (0.1 to 7 volts, 0.3 ms, 0.1 Hz) at increasing and cumulative concentrations from 10^−6 M to 10^−3 M.

Substance | % of inhibition (indirect stimulation)
manganese chloride [MnCl2] | 10%
manganese gluconate | 25%
